Source: patent publication US7910751B2, “Heterocyclidene acetamide derivative” (Mochida Pharmaceutical Co., Ltd., priority 2005, dated 2011)

Biological target: T1, human TRPV1 (Homo sapiens, UniProt Q8NER1)
T1 construct: expressed in transfected cells; host or cells: CHO-K1
Experiment: Measurement of capsaicin-induced Ca influx in human TRPV1 transformed CHO cell line using FDSS-6000
Assay type: cell-based
Conditions: concentration at which the capsaicin concentration-reaction curve is shifted two times to the right, human TRPV1 transformed CHO cells
Text: [Measurement of Capsaicin-Induced Ca Influx in Human TRPV1 Transformed CHO Cell Line]
(1) Establishment of Human TRPV1 Transformed CHO Cell Line
Human vanilloid receptor 1 (hTRPV1) cDNA was cloned from a human brain. The cloned hTRPV1 cDNA was incorporated in a pCAGGS vector. The gene of the vector was introduced to a CHO-K1 cell line, thus performing transformation. Clones obtained by limiting dilution were stimulated with capsaicin. Clones with a high responsiveness were selected using an increase in the Ca concentration as an indicator. The selected clones were used for the following experiment.
(2) Measurement of Ca Influx Using FDSS-6000
The human TRPV1 transformed CHO cells were seeded in a 96-well plate (with black walls and transparent bottoms, manufactured by Greiner) at a density of 40,000 cells per well. The cells were cultured at 37° C. in 5% CO2 for one night. A loading solution of FLIPR Calcium 3 assay kit (manufactured by Molecular Devices Corporation) containing 2.5 mmol/L of probenecid was then added to each of the wells in the same amount as the culture medium, and the cells were cultured at 37° C. for 60 minutes. After the cells were stimulated with capsaicin (1 nmol/L to 1 μmol/L), the change in the Ca concentration in the cells was measured using FDSS-6000 (λex: 480 nm, λem: 540 nm, manufactured by Hamamatsu Photonics K.K.) for three minutes. The integrated values of the increase rate of the Ca concentration in the cells were calculated for a group treated with the compounds of the present invention and a group treated with a medium, thus allowing capsaicin concentration-reaction curves to be obtained. A concentration (A2 value) of each of the compounds of the present invention, at which the capsaicin concentration-reaction curve obtained when the cells were treated with the medium was shifted two times to the right side, was calculated. The inhibiting effects of the test compounds were compared using this value as an indicator.
In the case where a compound of the present invention is an agonist, when the cells are treated with the compound of the present invention prior to the capsaicin stimulation, the Ca influx is observed. In Table 1, compounds of the present invention having an A2 value of less than 100 nM are represented by A, and compounds having an A2 value of 100 nM or more are represented by B. When the A2 values of the compounds of the present invention were measured by the above-described method, the compounds have an intensity of 1 μM or less.

T1 sequence (Q8NER1 whole entry): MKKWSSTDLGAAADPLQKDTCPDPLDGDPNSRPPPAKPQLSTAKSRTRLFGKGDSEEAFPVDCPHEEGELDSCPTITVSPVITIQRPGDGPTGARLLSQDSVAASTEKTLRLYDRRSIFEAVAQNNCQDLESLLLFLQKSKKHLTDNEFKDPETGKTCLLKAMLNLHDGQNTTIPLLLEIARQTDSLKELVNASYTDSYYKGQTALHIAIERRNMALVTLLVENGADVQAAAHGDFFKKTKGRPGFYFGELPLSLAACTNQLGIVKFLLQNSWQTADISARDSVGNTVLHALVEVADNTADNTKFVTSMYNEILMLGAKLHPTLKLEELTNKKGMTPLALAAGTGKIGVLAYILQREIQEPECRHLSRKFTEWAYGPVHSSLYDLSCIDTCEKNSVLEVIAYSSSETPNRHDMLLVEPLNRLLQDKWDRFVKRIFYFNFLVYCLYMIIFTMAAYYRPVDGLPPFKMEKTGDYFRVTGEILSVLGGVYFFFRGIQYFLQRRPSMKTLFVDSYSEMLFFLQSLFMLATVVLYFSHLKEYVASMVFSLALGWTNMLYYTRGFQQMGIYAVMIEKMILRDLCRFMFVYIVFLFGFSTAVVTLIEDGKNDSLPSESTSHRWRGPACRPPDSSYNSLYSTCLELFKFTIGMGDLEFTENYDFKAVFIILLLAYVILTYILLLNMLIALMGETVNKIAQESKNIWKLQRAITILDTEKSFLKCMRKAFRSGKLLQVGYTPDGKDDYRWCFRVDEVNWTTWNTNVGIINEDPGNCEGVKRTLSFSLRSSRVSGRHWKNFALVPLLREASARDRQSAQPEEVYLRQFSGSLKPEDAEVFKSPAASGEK

In the case of `Cc1cc(NC(=O)/C=C2\CCCOc3cc(C(F)(F)F)ccc32)n(C(C)(C)C)n1` [Example 46, (E)-N-(1-tert-butyl-3-methyl-1H-pyrazolo-5-yl)-2-(8-trifluoromethyl-3,4-dihydrobenzo[b]oxepin-5(2H)-ylidene)acetamide], the “A2 VALUE” is reported as “B (compounds having an A2 value of 100 nM or more are represented by B)”.

With `O=C(/C=C1\CCCOc2cc(C(F)(F)F)ccc21)Nc1nc(-c2ccccc2)cs1` [Example 47, (E)-2-(8-trifluoromethyl-3,4-dihydrobenzo[b]oxepin-5(2H)-ylidene)-N-(4-phenylthiazolo-2-yl)acetamide] the “A2 VALUE” was “B (compounds having an A2 value of 100 nM or more are represented by B)”.

For `CC(=O)N1CC/C(=C\C(=O)Nc2ccc3cccnc3c2)c2ccc(C(F)(F)F)cc21` [Example 48, (E)-2-(1-acetyl-7-trifluoromethyl-2,3-dihydroquinolin-4(1H)-ylidene)-N-(quinolin-7-yl)acetamide], the “A2 VALUE” was “A (compounds of the present invention having an A2 value of less than 100 nM are represented by A)”.

`O=C(/C=C1\CCNc2cc(C(F)(F)F)ccc21)NC1CCc2cccnc2C1` (stereo not shown) [Example 49, (E)-2-(7-trifluoromethyl-2,3-dihydroquinolin-4(1H)-ylidene)-N-(5,6,7,8-tetrahydroquinolin-7-yl)acetamide] was tested, and the “A2 VALUE” was “B (compounds having an A2 value of 100 nM or more are represented by B)”.

`CCCCC(=O)N1CC/C(=C\C(=O)Nc2ccc3cccnc3c2)c2ccc(C(F)(F)F)cc21` [Example 50, (E)-2-(7-trifluoromethyl-2,3-dihydro-1-pentanoylquinolin-4(1H)-ylidene)-N-(quinolin-7-yl)acetamide] was tested, and the “A2 VALUE” was “A (compounds of the present invention having an A2 value of less than 100 nM are represented by A)”.

With `CCC(CC)C(=O)N1CC/C(=C\C(=O)Nc2ccc3cccnc3c2)c2ccc(C(F)(F)F)cc21` [Example 51, (E)-2-(1-(2-ethylbutanoyl)-7-trifluoromethyl-2,3-dihydroquinolin-4(1H)-ylidene)-N-(quinolin-7-yl)acetamide] the “A2 VALUE” was “A (compounds of the present invention having an A2 value of less than 100 nM are represented by A)”.

In the case of `O=C(/C=C1\CCN(C(=O)C2CCCCC2)c2cc(C(F)(F)F)ccc21)Nc1ccc2cccnc2c1` [Example 52, (E)-2-(7-trifluoromethyl-2,3-dihydro-1-cyclohexanecarbonylquinolin-4(1H)-ylidene)-N-(quinolin-7-yl)acetamide], the “A2 VALUE” is reported as “A (compounds of the present invention having an A2 value of less than 100 nM are represented by A)”.

`O=C(/C=C1\CCN(C(=O)C2CCOCC2)c2cc(C(F)(F)F)ccc21)Nc1ccc2cccnc2c1` [Example 53, (E)-2-(7-trifluoromethyl-2,3-dihydro-1-(4-pyranoyl)quinolin-4(1H)-ylidene)-N-(quinolin-7-yl)acetamide] was tested, and the “A2 VALUE” was “A (compounds of the present invention having an A2 value of less than 100 nM are represented by A)”.

With `O=C(/C=C1\CCN(C(=O)c2ccccc2)c2cc(C(F)(F)F)ccc21)Nc1ccc2cccnc2c1` [Example 54, (E)-2-(7-trifluoromethyl-2,3-dihydro-1-benzoylquinolin-4(1H)-ylidene)-N-(quinolin-7-yl)acetamide] the “A2 VALUE” was “A (compounds of the present invention having an A2 value of less than 100 nM are represented by A)”.

For `O=C(/C=C1\CCN(C(=O)c2cccnc2)c2cc(C(F)(F)F)ccc21)Nc1ccc2cccnc2c1` [Example 55, (E)-2-(7-trifluoromethyl-2,3-dihydro-1-nicotinoylquinolin-4(1H)-ylidene)-N-(quinolin-7-yl)acetamide], the “A2 VALUE” was “A (compounds of the present invention having an A2 value of less than 100 nM are represented by A)”.

With `O=C(/C=C1\CCN(c2ccc(Cl)cc2)c2cc(C(F)(F)F)ccc21)NC1CCc2cccnc2C1` (stereo not shown) [Example 56, (E)-2-(1-(4-chlorophenyl)-7-trifluoromethyl-2,3-dihydro-4(1H)-ylidene)-N-(5,6,7,8-tetrahydroquinolin-7-yl)acetamide] the “A2 VALUE” was “A (compounds of the present invention having an A2 value of less than 100 nM are represented by A)”.

In the case of `O=C(/C=C1\CCN(c2ccc(Cl)cc2)c2cc(C(F)(F)F)ccc21)Nc1ccc2cccnc2c1` [Example 57, (E)-2-(1-(4-chlorophenyl)-7-trifluoromethyl-2,3-dihydro-4(1H)-ylidene)-N-(quinolin-7-yl)acetamide], the “A2 VALUE” is reported as “A (compounds of the present invention having an A2 value of less than 100 nM are represented by A)”.

In the case of `O=C(/C=C1\CCN(c2cccnc2)c2cc(C(F)(F)F)ccc21)Nc1ccc2cccnc2c1` [Example 58, (E)-2-(7-trifluoromethyl-2,3-dihydro-1-(pyridin-3-yl)quinolin-4(1H)-ylidene)-N-(quinolin-7-yl)acetamide], the “A2 VALUE” is reported as “A (compounds of the present invention having an A2 value of less than 100 nM are represented by A)”.

With `O=C(/C=C1\CCCOc2cc(C(F)(F)F)ccc21)Nc1ccc2sc(CO)nc2c1` [Example 59, (E)-2-(8-trifluoromethyl-3,4-dihydrobenzo[b]oxepin-5(2H)-ylidene)-N-(2-hydroxymethyl-1,3-benzothiazolo-5-yl)acetamide] the “A2 VALUE” was “A (compounds of the present invention having an A2 value of less than 100 nM are represented by A)”.

For `O=C(/C=C1\CCCOc2cc(C(F)(F)F)ccc21)Nc1ccccc1CCO` [Example 60, (E)-2-(8-trifluoromethyl-3,4-dihydrobenzo[b]oxepin-5(2H)-ylidene)-N-((2-hydroxyethyl)phenyl-1-yl)acetamide], the “A2 VALUE” was “A (compounds of the present invention having an A2 value of less than 100 nM are represented by A)”.

For `O=C1CCc2cccc(NC(=O)/C=C3\CCCOc4cc(C(F)(F)F)ccc43)c2C1` [Example 61, (E)-2-(8-trifluoromethyl-3,4-dihydrobenzo[b]oxepin-5(2H)-ylidene)-N-(7-oxo-5,6,7,8-tetrahydronaphthalen-1-yl)acetamide], the “A2 VALUE” was “A (compounds of the present invention having an A2 value of less than 100 nM are represented by A)”.

In the case of `O=C(/C=C1\CCCOc2cc(C(F)(F)F)ccc21)Nc1cccc2c1CC(O)CC2` (stereo not shown) [Example 62, (E)-2-(8-trifluoromethyl-3,4-dihydrobenzo[b]oxepin-5-(2H)-ylidene)-N-(7-hydroxy-5,6,7,8-tetrahydronaphthalen-1-yl)acetamide], the “A2 VALUE” is reported as “A (compounds of the present invention having an A2 value of less than 100 nM are represented by A)”.

`O=C(/C=C1\CCCOc2cc(C(F)(F)F)ccc21)Nc1cccc2c1CC(O)CC2` (stereo not shown) [Example 63, (E)-2-(8-trifluoromethyl-3,4-dihydrobenzo[b]oxepin-5-(2H)-ylidene)-N-(7-hydroxy-5,6,7,8-tetrahydronaphthalen-1-yl)acetamide] was tested, and the “A2 VALUE” was “A (compounds of the present invention having an A2 value of less than 100 nM are represented by A)”.

In the case of `O=C(/C=C1\CCCOc2cc(C(F)(F)F)ccc21)Nc1cccc2c1CC(O)CC2` (stereo not shown) [Example 64, (E)-2-(8-trifluoromethyl-3,4-dihydrobenzo[b]oxepin-5-(2H)-ylidene)-N-(7-hydroxy-5,6,7,8-tetrahydronaphthalen-1-yl)acetamide], the “A2 VALUE” is reported as “A (compounds of the present invention having an A2 value of less than 100 nM are represented by A)”.
